The structures appear in SMILES notation.

The test system of one assay is human gastric adenocarcinoma (AGS) cell line. The assay can be described thus: MTT reduction assay, cell viability / cytotoxicity in AGS cell line. The format is cell-based. The following applies: AGS cell line, cell viability, MTT, 48 h incubation, 100 µM, mean ± SD. How it is done: The cytotoxicity was assessed in different cell lines with the endpoint MTT, using previously reported procedure. The following cells were obtained from the American Type Culture Collection: human embryonic kidney epithelial cell line (HEK 293T, ATCC HBT-22™), breast cancer cell line (MDA-MB-231, ATCC HTB-26™), osteosarcoma cell line (MG-63, ATCC CRL-1427™), gastric adenocarcinoma cell line (AGS, ATTC CRL-1739TM), prostate cancer cell line (DU-145, ATTC HTB-81™), and lung carcinoma cell line (A-549, ATCC CCL-185™). All cell lines were seeded at 2 × 10^4 cells/well with exception of A-549 cell line, which was seeded at 5 × 10^3 cells/well.
For `O=C1CC[C@]2(c3ccc(Cl)cc3)OC[C@@H](Cc3c[nH]c4ccccc34)N12` [Compound 7c, (3R,7aR)-3-((1H-indol-3-yl)methyl)-7a-(4-chlorophenyl)tetrahydropyrrolo[2,1-b]oxazol-5(6H)-one], the “% CV at 100 µM” value is on record as 6 ± 1%. Take `O=C1CC[C@@]2(c3ccc(Cl)cc3)OC[C@H](Cc3c[nH]c4ccccc34)N12` [Compound 8c, (3S,7aS)-3-((1H-indol-3-yl)methyl)-7a-(4-chlorophenyl)tetrahydropyrrolo[2,1-b]oxazol-5(6H)-one]: the “% CV at 100 µM” value stood at 11 ± 1%. Same read-out and setting: in the case of `Cc1ccc([C@@]23CCC(=O)N2[C@@H](Cc2c[nH]c4ccccc24)CO3)cc1` [Compound 8e, (3S,7aS)-3-((1H-indol-3-yl)methyl)-7a-(p-tolyl)tetrahydropyrrolo[2,1-b]oxazol-5(6H)-one] it was 60 ± 3%; in that of `O=C1CC[C@@]2(c3ccc(Br)cc3)OC[C@H](Cc3c[nH]c4ccccc34)N12` [Compound 8d, (3S,7aS)-3-((1H-indol-3-yl)methyl)-7a-(4-bromophenyl)tetrahydropyrrolo[2,1-b]oxazol-5(6H)-one], 25 ± 4%; in that of `CS(=O)(=O)c1ccc([C@@]23CCC(=O)N2[C@@H](Cc2c[nH]c4ccccc24)CO3)cc1` [Compound 8g, (3S,7aS)-3-((1H-indol-3-yl)methyl)-7a-(4-(methylsulfonyl)phenyl)tetrahydropyrrolo[2,1-b]oxazol-5(6H)-one], 91 ± 11%.

As to `O=C1CC[C@]2(c3ccc(Br)cc3)OC[C@@H](Cc3c[nH]c4ccccc34)N12` [Compound 7d, (3R,7aR)-3-((1H-indol-3-yl)methyl)-7a-(4-bromophenyl)tetrahydropyrrolo[2,1-b]oxazol-5(6H)-one], the “% CV at 100 µM” value is 14 ± 3%. On the same count and under the same terms, in the case of `O=C1CC[C@@]2(c3ccc(F)cc3)OC[C@H](Cc3c[nH]c4ccccc34)N12` [Compound 8b, (3S,7aS)-3-((1H-indol-3-yl)methyl)-7a-(4-fluorophenyl)tetrahydropyrrolo[2,1-b]oxazol-5(6H)-one] it was 22 ± 4%; in that of `COc1ccc([C@@]23CCC(=O)N2[C@@H](Cc2c[nH]c4ccccc24)CO3)cc1` [Compound 8f, (3S,7aS)-3-((1H-indol-3-yl)methyl)-7a-(4-methoxyphenyl)tetrahydropyrrolo[2,1-b]oxazol-5(6H)-one], 30 ± 4%. Still for that read-out and setting: in the case of `O=C1CC[C@@]2(c3ccccc3)OC[C@H](Cc3c[nH]c4ccccc34)N12` [Compound 8a, (3S,7aS)-3-((1H-indol-3-yl)methyl)-7a-phenyltetrahydropyrrolo[2,1-b]oxazol-5(6H)-one] it was 58 ± 4%; in that of `Cc1ccc([C@]23CCC(=O)N2[C@H](Cc2c[nH]c4ccccc24)CO3)cc1` [Compound 7e, (3R,7aR)-3-((1H-indol-3-yl)methyl)-7a-(p-tolyl)tetrahydropyrrolo[2,1-b]oxazol-5(6H)-one], 14 ± 2%; in that of `O=C1CC[C@]2(c3ccc(F)cc3)OC[C@@H](Cc3c[nH]c4ccccc34)N12` [Compound 7b, (3R,7aR)-3-((1H-indol-3-yl)methyl)-7a-(4-fluorophenyl)tetrahydropyrrolo[2,1-b]oxazol-5(6H)-one], 50 ± 8%. On the same count and under the same terms, with `O=C1CC[C@]2(c3ccccc3)OC[C@@H](Cc3c[nH]c4ccccc34)N12` [Compound 7a, (3R,7aR)-3-((1H-indol-3-yl)methyl)-7a-phenyltetrahydropyrrolo[2,1-b]oxazol-5(6H)-one] the figure was 50 ± 5%; with `CS(=O)(=O)c1ccc([C@]23CCC(=O)N2[C@H](Cc2c[nH]c4ccccc24)CO3)cc1` [Compound 7g, (3R,7aR)-3-((1H-indol-3-yl)methyl)-7a-(4-(methylsulfonyl)phenyl)tetrahydropyrrolo[2,1-b]oxazol-5(6H)-one], 94 ± 12%; with `COc1ccc([C@]23CCC(=O)N2[C@H](Cc2c[nH]c4ccccc24)CO3)cc1` [Compound 7f, (3R,7aR)-3-((1H-indol-3-yl)methyl)-7a-(4-methoxyphenyl)tetrahydropyrrolo[2,1-b]oxazol-5(6H)-one], 18 ± 2%.

The assay is the same for the next values; noted with them: Homo sapiens; AGS cell line, cell viability, MTT, 48 h incubation, 50 µM, mean ± SD; read-out: % CV at 50 µM.
Turning to `O=C1CC[C@]2(c3ccc(-c4ccc(CO)cc4)cc3)OC[C@@H](Cc3c[nH]c4ccccc34)N12` [Compound 7q, (3R,7aR)-3-((1H-indol-3-yl)methyl)-7a-(4’-(hydroxymethyl)-[1,1’-biphenyl]-4-yl)tetrahydropyrrolo[2,1-b]oxazol-5(6H)-one], the viability at 50 µM was determined as 55 ± 1%. Still for that read-out and setting: with `O=C1CC[C@]2(c3ccc(Cl)cc3)OC[C@@H](Cc3c[nH]c4ccccc34)N12` [Compound 7c, (3R,7aR)-3-((1H-indol-3-yl)methyl)-7a-(4-chlorophenyl)tetrahydropyrrolo[2,1-b]oxazol-5(6H)-one] the figure was 11 ± 1%; with `CC1CC(=O)N2C(Cc3c[nH]c4ccccc34)COC12c1ccc(Cl)cc1` (stereo not drawn) [Compound 7j], 8%. Regarding `O=C1CC[C@]2(c3ccc(-c4ccc(Cl)cc4)cc3)OC[C@@H](Cc3c[nH]c4ccccc34)N12` [Compound 7n, (3R,7aR)-3-((1H-indol-3-yl)methyl)-7a-(4’-chloro-[1,1’-biphenyl]-4-yl)tetrahydropyrrolo[2,1-b]oxazol-5(6H)-one], the viability at 50 µM amounted to 65 ± 13%. On the same count and under the same terms, with `O=C1CC[C@]2(c3ccc(-c4cccc(Cl)c4)cc3)OC[C@@H](Cc3c[nH]c4ccccc34)N12` [Compound 7r, (3R,7aR)-3-((1H-indol-3-yl)methyl)-7a-(3’-chloro-[1,1’-biphenyl]-4-yl)tetrahydropyrrolo[2,1-b]oxazol-5(6H)-one] the figure was 17 ± 1%; with `O=C1CC[C@]2(c3ccc(-c4ccncc4)cc3)OC[C@@H](Cc3c[nH]c4ccccc34)N12` [Compound 7t, (3R,7aR)-3-((1H-indol-3-yl)methyl)-7a-(4-(pyridin-4-yl)phenyl)tetrahydropyrrolo[2,1-b]oxazol-5(6H)-one], 75 ± 14%.

With `COc1ccc([C@]23CCC(=O)N2[C@H](Cc2c[nH]c4ccccc24)CO3)cc1F` [Compound 7i, (3R,7aR)-3-((1H-indol-3-yl)methyl)-7a-(3-fluoro-4-methoxyphenyl)tetrahydropyrrolo[2,1-b]oxazol-5(6H)-one], the viability at 50 µM was determined as 84 ± 7%. `O=C1CC[C@]2(c3ccc(-c4ccc5c(c4)OCCO5)cc3)OC[C@@H](Cc3c[nH]c4ccccc34)N12` [Compound 7u, (3R,7aR)-3-((1H-indol-3-yl)methyl)-7a-(4-(2,3-dihydrobenzo[b][1, 4]dioxin-6-yl)phenyl)tetrahydropyrrolo[2,1-b]oxazol-5(6H)-one]: the viability at 50 µM was found to be 67 ± 6%. On the same count and under the same terms, with `O=C1CC[C@]2(c3ccc(-c4ccc(O)cc4)cc3)OC[C@@H](Cc3c[nH]c4ccccc34)N12` [Compound 7p, (3R,7aR)-3-((1H-indol-3-yl)methyl)-7a-(4’-hydroxy-[1,1’-biphenyl]-4-yl)tetrahydropyrrolo[2,1-b]oxazol-5(6H)-one] the figure was 56 ± 1%; with `CC(=O)n1cc(C[C@@H]2CO[C@@]3(c4ccc(Cl)cc4)CCC(=O)N23)c2ccccc21` [Compound 7l, (3R,7aR)-3-((1-acetyl-1H-indol-3-yl)methyl)-7a-(4-chlorophenyl)tetrahydropyrrolo[2,1-b]oxazol-5(6H)-one], 63 ± 13%; with `CC(C)(C)OC(=O)n1cc(C[C@@H]2CO[C@@]3(c4ccc(Cl)cc4)CCC(=O)N23)c2ccccc21` [Compound 7m, tert-butyl 3-(((3R,7aR)-7a-(4-chlorophenyl)-5-oxohexahydropyrrolo[2,1-b]oxazol-3-yl)methyl)-1H-indole-1-carboxylate], 61 ± 9%. Still for that read-out and setting: with `Cc1ccc([C@]23CCC(=O)N2[C@H](Cc2c[nH]c4ccccc24)CO3)cc1Cl` [Compound 7h, (3R,7aR)-3-((1H-indol-3-yl)methyl)-7a-(3-chloro-4-methylphenyl)tetrahydropyrrolo[2,1-b]oxazol-5(6H)-one] the figure was 11 ± 2%; with `CCn1cc(C[C@@H]2CO[C@@]3(c4ccc(Cl)cc4)CCC(=O)N23)c2ccccc21` [Compound 7k, (3R,7aR)-7a-(4-chlorophenyl)-3-((1-ethyl-1H-indol-3-yl)methyl)tetrahydropyrrolo[2,1-b]oxazol-5(6H)-one], 40 ± 5%.

These data come from article PMC8001353, “Tryptophanol-Derived Oxazolopyrrolidone Lactams as Potential Anticancer Agents against Gastric Adenocarcinoma” (Pharmaceuticals, 2021).
